Columns and labels:
DPP-IV = DPP-IV (Homo sapiens, UniProt P27487); assay: Tolerance of GLP-1 and its analogues to DPP-IV (RP-HPLC remaining peak area); assay type: in vitro ADME; details: peptide 25 μM, DPP-IV 0.5 ng/μL, 37° C.; for Remaining peak area (%)/DPP-IV: 0.0 h; for remaining at 0.5 h, 25 μM / remaining at 2 h, 25 μM / remaining at 4 h, 25 μM / remaining at 8 h, 25 μM / remaining at 12 h, 25 μM: isolated DPP-IV enzyme in buffer, pH 8
Procedure: (§1) Mix by centrifugation at 8000 rpm for 30 seconds.
(2) Arrange a certain volume of 0.005 μg/μL DPP-IV solution in another sterile EP.

elastase = elastase (Sus scrofa, UniProt P00772); assay: in vitro; details: isolated enzyme elastase; for remaining at 0.025 h, 60 μM / remaining at 0.05 h, 60 μM / remaining at 0.075 h, 60 μM / remaining at 0.1 h, 60 μM / remaining at 0.15 h, 60 μM / remaining at 0.25 h, 60 μM / remaining at 0.5 h, 60 μM / remaining at 1 h, 60 μM: pH 8, Remaining peak area (%)/elastase; for Remaining peak area (%)/elastase: 1 h, 60 μM, pH 8
elastase, sequence (P00772 27-266): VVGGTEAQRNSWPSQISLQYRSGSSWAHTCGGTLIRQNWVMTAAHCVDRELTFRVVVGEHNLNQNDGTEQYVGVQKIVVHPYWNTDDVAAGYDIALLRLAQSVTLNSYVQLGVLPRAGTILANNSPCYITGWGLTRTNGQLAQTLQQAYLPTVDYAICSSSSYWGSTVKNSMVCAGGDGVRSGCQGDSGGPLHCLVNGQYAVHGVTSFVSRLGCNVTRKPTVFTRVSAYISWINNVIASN
Procedure: FIG. 19. […] At different time point, 25 μL aliquots was taken out, and 10% (v/v) TFA was added to terminate the reaction.
as §1
Arrange a certain volume of 0.5 μg/μL elastase solution in another sterile EP. Incubate the EP tubes containing peptides and enzymes at 37° C. for 5 min, and then add 4.5 μL of elastase solution to each EP tube containing peptides and mix well. Start timing and remove 25 μL of reaction solution at 1.5, 3.0, 4.5, 6.0, 9.0, 15.0, 30.0, and 60.0 min later, respectively. Add 3.75 μL of 10% TFA to terminate the reaction and mix well by centrifugation at 8000 rpm for 30 seconds.
Referring to the experimental method in Example 5, in vitro stability of salmon Calcitonin analogs with oral administration activity to the enzymatic hydrolysis by trypsin, chymotrypsin and elastase were performed.
Referring to the experimental method in Example 5, in vitro stability of IL-17A inhibitory peptides towards the enzymatic hydrolysis by trypsin, chymotrypsin and elastase were performed.

[1] = Stability of GLP-1 and its analogues in human serum; details: 25% (v/v) human serum; for Remaining peak area (%)/human serum: 0.0 h, peptide 0.03 mM, 37° C.; for remaining at 0.5 h, 0.03 mM / remaining at 2 h, 0.03 mM / remaining at 4 h, 0.03 mM / remaining at 8 h, 0.03 mM / remaining at 12 h, 0.03 mM: human, pH 7

DPP-IV, sequence (P27487 whole entry, species assumed): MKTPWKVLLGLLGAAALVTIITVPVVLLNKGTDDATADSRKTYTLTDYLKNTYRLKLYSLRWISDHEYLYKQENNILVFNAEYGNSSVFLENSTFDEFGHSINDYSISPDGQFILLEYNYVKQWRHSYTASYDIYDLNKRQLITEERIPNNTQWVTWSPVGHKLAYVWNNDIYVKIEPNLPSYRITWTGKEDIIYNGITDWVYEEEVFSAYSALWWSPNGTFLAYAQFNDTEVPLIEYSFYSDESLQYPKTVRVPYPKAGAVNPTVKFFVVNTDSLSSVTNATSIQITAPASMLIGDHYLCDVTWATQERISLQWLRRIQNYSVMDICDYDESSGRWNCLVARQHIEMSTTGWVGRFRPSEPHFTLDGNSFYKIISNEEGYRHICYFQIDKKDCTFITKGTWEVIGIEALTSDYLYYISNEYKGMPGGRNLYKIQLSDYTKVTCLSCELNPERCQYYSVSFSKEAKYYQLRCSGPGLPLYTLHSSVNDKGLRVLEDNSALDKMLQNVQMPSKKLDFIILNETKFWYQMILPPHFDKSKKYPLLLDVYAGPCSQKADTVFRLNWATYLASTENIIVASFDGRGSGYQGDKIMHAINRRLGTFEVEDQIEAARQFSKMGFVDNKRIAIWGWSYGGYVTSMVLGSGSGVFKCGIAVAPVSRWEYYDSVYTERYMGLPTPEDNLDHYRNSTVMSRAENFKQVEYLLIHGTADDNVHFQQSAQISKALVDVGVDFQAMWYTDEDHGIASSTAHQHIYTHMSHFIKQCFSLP

remaining at 0.025 h, 60 μM (elastase) [%]	remaining at 0.05 h, 60 μM (elastase) [%]	remaining at 0.075 h, 60 μM (elastase) [%]	remaining at 0.1 h, 60 μM (elastase) [%]	remaining at 0.15 h, 60 μM (elastase) [%]	remaining at 0.25 h, 60 μM (elastase) [%]	remaining at 0.5 h, 60 μM (elastase) [%]	remaining at 1 h, 60 μM (elastase) [%]	Remaining peak area (%)/human serum [1] [%]	remaining at 0.5 h, 0.03 mM [1] [%]	remaining at 2 h, 0.03 mM [1] [%]	remaining at 4 h, 0.03 mM [1] [%]	remaining at 8 h, 0.03 mM [1] [%]	remaining at 12 h, 0.03 mM [1] [%]	Structure (SMILES)	Remaining peak area (%)/DPP-IV (DPP-IV) [%]	remaining at 0.5 h, 25 μM (DPP-IV) [%]	remaining at 2 h, 25 μM (DPP-IV) [%]	remaining at 4 h, 25 μM (DPP-IV) [%]	remaining at 8 h, 25 μM (DPP-IV) [%]	remaining at 12 h, 25 μM (DPP-IV) [%]	further results
73.1 ± 5	73.8 ± 2.8	70.4 ± 2	68.6 ± 2.4	66.9 ± 3.9	62.1 ± 4.3	58.4 ± 4.6	44.5 ± 0.9	100.0 ± 0.0	73.7 ± 3.7	63.5 ± 4.8	46.6 ± 6.4	42.4 ± 3.5	27.4 ± 0.3	CC[C@H](C)[C@H](NC(=O)[C@H](Cc1ccccc1)NC(=O)[C@H](CCC(=O)O)NC(=O)[C@H](CCCCN)NC(=O)[C@H](C)NC(=O)[C@H](C)NC(=O)[C@H](CCC(N)=O)NC(=O)CNC(=O)[C@H](CCC(=O)O)NC(=O)[C@H](CC(C)C)NC(=O)[C@H](Cc1ccc(O)cc1)NC(=O)[C@H](CO)NC(=O)[C@H](CO)NC(=O)[C@@H](NC(=O)[C@H](CC(=O)O)NC(=O)[C@H](CO)NC(=O)[C@@H](NC(=O)[C@H](Cc1ccccc1)NC(=O)[C@@H](NC(=O)CNC(=O)[C@H](CCC(=O)O)NC(=O)[C@H](C)NC(=O)[C@H](Cc1c[nH]cn1)NC(=O)CNC(=O)CNC(=O)[C@@H](NC(=O)[C@@H]1CCCN1C(=O)[C@@H](NC(=O)CN)[C@@H](C)CC)[C@@H](C)CC)[C@@H](C)O)[C@@H](C)O)C(C)C)C(=O)N[C@@H](C)C(=O)N[C@@H](Cc1c[nH]c2ccccc12)C(=O)N[C@@H](CC(C)C)C(=O)N[C@H](C(=O)N[C@@H](CCCCN)C(=O)NCC(=O)N[C@@H](CCCNC(=N)N)C(=O)NCC(=O)NCC(=O)N[C@@H](CCCCN)C(=O)NCC(=O)N[C@@H](CC(C)C)C(=O)N[C@H]1CSSC[C@@H](C(=O)N[C@@H](Cc2ccc(O)cc2)C(=O)O)NC(=O)[C@H](CCC(N)=O)NC(=O)[C@@H]2CCCN2C(=O)[C@@H]2CCCN2C(=O)[C@H]([C@@H](C)CC)NC(=O)[C@H](CO)NC(=O)[C@H](C)NC(=O)[C@H]([C@@H](C)O)NC1=O)C(C)C [D-GLP-1-EC1]	100.0 ± 0.0	82.5 ± 0.6	81.2 ± 3.9	84 ± 2.2	82.5 ± 1.6	83.5 ± 0.5	serum stability (in words) [1]: more stable in serum
93.2 ± 2.4	88.9 ± 1.6	83.3 ± 1	82.7 ± 4.6	79.8 ± 2.2	72.5 ± 1.6	66.1 ± 2.1	49.5 ± 1.1	100.0 ± 0.0	86.9 ± 3.8	79.9 ± 6.2	73.9 ± 1.6	72.9 ± 8.2	53.5 ± 3.7	CC[C@H](C)[C@H](NC(=O)[C@H](Cc1ccccc1)NC(=O)[C@H](CCC(=O)O)NC(=O)[C@H](CCCCN)NC(=O)[C@H](C)NC(=O)[C@H](C)NC(=O)[C@H](CCC(N)=O)NC(=O)CNC(=O)[C@H](CCC(=O)O)NC(=O)[C@H](CC(C)C)NC(=O)[C@H](Cc1ccc(O)cc1)NC(=O)[C@H](CO)NC(=O)[C@H](CO)NC(=O)[C@@H](NC(=O)[C@H](CC(=O)O)NC(=O)[C@H](CO)NC(=O)[C@@H](NC(=O)[C@H](Cc1ccccc1)NC(=O)[C@@H](NC(=O)CNC(=O)[C@H](CCC(=O)O)NC(=O)[C@H](C)NC(=O)[C@H](Cc1c[nH]cn1)NC(=O)CNC(=O)CNC(=O)[C@@H](NC(=O)[C@@H]1CCCN1C(=O)[C@@H](NC(=O)CN)[C@@H](C)CC)[C@@H](C)CC)[C@@H](C)O)[C@@H](C)O)C(C)C)C(=O)N[C@@H](C)C(=O)N[C@@H](Cc1c[nH]c2ccccc12)C(=O)N[C@@H](CC(C)C)C(=O)N[C@H](C(=O)N[C@@H](CCCCN)C(=O)NCC(=O)N[C@@H](CCCNC(=N)N)C(=O)NCC(=O)NCC(=O)N[C@@H](CCCCN)C(=O)NCC(=O)N[C@@H](CC(C)C)C(=O)N[C@H]1CSSC[C@@H](C(=O)N[C@@H](CCC(N)=O)C(=O)O)NC(=O)[C@H]([C@@H](C)CC)NC(=O)[C@@H]2CCCN2C(=O)[C@@H]2CCCN2C(=O)[C@H]([C@@H](C)CC)NC(=O)[C@H](CO)NC(=O)[C@H](C)NC(=O)[C@H]([C@@H](C)O)NC1=O)C(C)C [D-GLP-1-EC12]	100.0 ± 0.0	93.4 ± 0.8	92.3 ± 3	91.7 ± 0.6	93.3 ± 0.2	95.1 ± 1.4	Remaining peak area (%)/elastase (elastase): about 45%; serum stability (in words) [1]: more stable in serum
86 ± 5.4	81.9 ± 3.9	80.3 ± 2	80.1 ± 3.4	76.2 ± 1.6	70.4 ± 4.5	40.9 ± 1.1	~20	100.0 ± 0.0	72.8 ± 0.8	40.8 ± 4.3	23.4 ± 1.9	11.7 ± 2	3.4 ± 0.4	CC[C@H](C)[C@H](NC(=O)[C@H](Cc1ccccc1)NC(=O)[C@H](CCC(=O)O)NC(=O)[C@H](CCCCN)NC(=O)[C@H](C)NC(=O)[C@H](C)NC(=O)[C@H](CCC(N)=O)NC(=O)CNC(=O)[C@H](CCC(=O)O)NC(=O)[C@H](CC(C)C)NC(=O)[C@H](Cc1ccc(O)cc1)NC(=O)[C@H](CO)NC(=O)[C@H](CO)NC(=O)[C@@H](NC(=O)[C@H](CC(=O)O)NC(=O)[C@H](CO)NC(=O)[C@@H](NC(=O)[C@H](Cc1ccccc1)NC(=O)[C@@H](NC(=O)CNC(=O)[C@H](CCC(=O)O)NC(=O)[C@H](C)NC(=O)[C@H](Cc1c[nH]cn1)NC(=O)CNC(=O)CNC(=O)[C@@H](NC(=O)[C@@H]1CCCN1C(=O)[C@@H](NC(=O)CNC(=O)CNC(=O)[C@H](Cc1ccc(O)cc1)NC(=O)[C@@H]1CSSC[C@H](NC(=O)[C@@H](N)CC(C)C)C(=O)N[C@@H]([C@@H](C)O)C(=O)N[C@@H](C)C(=O)N[C@@H](CO)C(=O)N[C@@H]([C@@H](C)CC)C(=O)N2CCC[C@H]2C(=O)N2CCC[C@H]2C(=O)N[C@@H](CCC(N)=O)C(=O)N1)[C@@H](C)CC)[C@@H](C)CC)[C@@H](C)O)[C@@H](C)O)C(C)C)C(=O)N[C@@H](C)C(=O)N[C@@H](Cc1c[nH]c2ccccc12)C(=O)N[C@@H](CC(C)C)C(=O)N[C@H](C(=O)N[C@@H](CCCCN)C(=O)NCC(=O)N[C@@H](CCCNC(=N)N)C(=O)NCC(=O)NCC(=O)N[C@@H](CCCCN)C(=O)O)C(C)C [EC1-D-GLP-1]	100.0 ± 0.0	101 ± 1.7	99.6 ± 0.6	104.5 ± 0.3	97.4 ± 4.2	93.6 ± 4.9	Remaining peak area (%)/elastase (elastase): 24.2 ± 0.6%

Reference: patent US20230416329A1, “A PEPTIDE WITH DISULFIDE BONDS AND INHIBITORY ACTIVITY AGAINST SERINE PROTEASES, DERIVED HYBRID PEPTIDES THEREOF, AND USES THEREOF” (INSTITUTE OF MATERIA MEDICA , CHINESE ACADEMY OF MEDICAL …, priority 2020, published 2023)
